Measured values published in patent publication US7807654B2, “Compositions and methods for treatment of mitochondrial diseases” (Wellstat Therapeutics Corporation, priority 1998, dated 2010).

Assays:
3NP treated mice [1] = test: 3NP model with TAU, creatine or coenzyme Q10: mortality and body weight; assay type: in vivo, CD-1 mice; conditions: for mortality due to 3NP treatment: experiments 1 and 2 (FIGS. 1 and 2), 6% TAU, 2% creatine, coenzyme Q10 200 mg/kg chow
Procedure: (§1) Retired male CD-1 mice, 7-9 months of age, (Strain: Cr:NIH (S); Source: NCI) weighing 30-40 g were housed singly throughout the study. The animals were kept on a 12-hour light/dark cycle, with food and water continuously available. The animals were acclimated to our facility for seven days before experimentation. The mice were randomly assigned treatment groups.
The mice were given 3NP at a dose of 40, 40, 50, 50, 60 and 60 mg/kg i.p. on days 1-6 and 50 mg/kg i.p. on days 5-12.
(§2) The mice were given 3NP at a dose of 40, 40, 50, 50, 60 and 60 mg/kg i.p. on days 1-6 and 50 mg/kg i.p. on days […] was made up at 4, 5 or 6.0 mg/ml in sterile water (pH to 7.4 with 1.0 NaOH) and 0.1 ml/10 g BW was given (i.p) to each mouse at 3-4 PM.
(§3) The dosing of TAU (Nagase & Co., Ltd., Chemicals Second Division, 5-1, Nihonbashi-Kobunacho, Chuo-Ku, Tokyo 103, Japan; Lot 103 H 0060) was mixed into the rodent chow at 6% weight/weight. Creatine (Sigma) was mixed into the chow at 2% (weight/weight) that is previously reported to be the optimal dose (Matthews, Yang et al. 1998). Coenzyme Q10 (Sigma) was also provided in the chow at a dose 200 mg/kg chow) previously shown to be effective (Matthews, Yang et al. 1998).
• n=9-12/group • Vehicle+Vehicle • Vehicle+3NP • TAU+3NP • Creatine+3NP • TAU and Creatine+Vehicle
• (n=8-10/group) • Vehicle+Vehicle • Vehicle+3NP • TAU+3NP • Coenzyme Q10+3NP • TAU and Coenzyme Q10+Vehicle
• (n=8-10/group) • Vehicle+Vehicle • Vehicle+3NP • 8% TAU+Vehicle • 2% TAU+3NP • 4% TAU+3NP • 8% TAU+3NP
Data were analyzed by one- or two-way ANOVA followed by comparison of treatments by the Tukey test. Data are represented as mean±SEM.

3NP treated mice [2] = test: 3NP model with TAU, creatine or coenzyme Q10: locomotor activity; assay type: in vivo, CD-1 mice
Procedure: as §1, §2
as §3, with “Coenzyme Q10 (Sigma) was also provided in the chow at a dose 200 mg/kg chow) previously shown to be effective (Matthews, Yang et al. 1998).” left out
The Photobeam Activity System (San Diego Instruments, San Diego, Calif.) was used to measure spontaneous activity. […] Spontaneous activity was quantified by placing mice in the Photobeam Activity System for a period of 30 min. […]
(§4) Data were analyzed by one- or two-way ANOVA followed by comparison of treatments by the Tukey test. […]

3NP treated mice [3] = test: 3NP model with TAU, creatine or coenzyme Q10: rotarod; assay type: in vivo, CD-1 mice
Procedure: as §1, §2
The dosing of TAU (Nagase & Co., Ltd., Chemicals Second Division, 5-1, Nihonbashi-Kobunacho, Chuo-Ku, Tokyo 103, Japan; Lot 103 H 0060) was mixed into the rodent chow at 6% weight/weight. Creatine (Sigma) was mixed into the chow at 2% (weight/weight) that is previously reported to be the optimal dose (Matthews, Yang et al. 1998). Coenzyme Q10 (Sigma) was also provided in the chow at a dose 200 mg/kg chow) previously shown to be effective (Matthews, Yang et al. 1998). […]
The Rotarod apparatus (San Diego Instruments, San Diego, Calif.) was used to measure fore- and hindlimb motor coordination and balance. […] The latency to fall off the rotarod within this time period was recorded. […]
as §4

3NP treated mice [4] = test: 3-nitropropionic acid (3NP) model of Huntington's disease; assay type: in vivo, Swiss mice
Procedure: Male 6-8 month old Swiss mice (National Cancer Institute; NCI, Frederick, Md.) were treated with 3NP (65 mg/kg i.p.) daily for 4 days to induce mortality, neuronal cell loss and behavioral impairment with n=8/group. […] On day 9, the mice were perfuse fixed with 10% buffered formalin and processed for silver staining to detect neuronal damage. […] There was no mortality in the 3NP+TAU group, but 3 of 8 mice died in the vehicle+3NP group.
Behavioral scoring of the 3NP treated mice was to determine whether there was any motor impairment at anytime during the study. There were 88% of the control+3NP treated mice with behavioral impairment indicated by gross observation. A decreased incidence of impairment of only 50% was found in the TAU+3NP treated mice.
The silver staining was analyzed by a pathologist blinded to the identity of tissue samples. […] However, in the control+3NP treated mice, silver staining of synaptic terminals in the striatal area (caudate/putamen area) and substantia nigra was pronounced. Silver impregnation of axons and/or synaptic terminals in the thalamus, deep mesencephalon and/or reticular formation (medulla) was also found in […] of the control+3NP treated mice. The substantia nigra projects to the striatum and these areas are especially vulnerable to damage by 3NP. The damage to the substantia nigra and striatum was prevented by TAU.

3NP treated mice [5] = test: 3-nitropropionic acid (3NP) model of epilepsy; assay type: in vivo, CD-1 mice
Source text: 3-nitropropionic acid (3NP) is a mitochondrial toxin that acts by inhibiting Complex II of the respiratory chain; it is used to induce brain lesions similar to those characteristic of Huntington's disease. Seizures can also be induced by the use of 3NP as a model of epilepsy and mitochondrial dysfunction. Urbanska et al., Eur J Pharmacol, 359: 55-8 (1998). Male CD-1 mice (National Cancer Institute, NCI, Frederick. Md.) weighing between […] were used throughout. Mice were divided into groups of 5 and animals for each group were randomly chosen from different cages to avoid possible influence of age. The mice were maintained on a 12 hr light dark cycle with free access to water and food. All experiments were performed during the light period between 9:00 and 16:00 hr. Mice (n=17-20) were given 160 mg/kg 3NP and followed for seizures. 3NP was made up at 16 mg or 18 mg/ml in sterile water (pH: 7.4). 3NP was administered i.p. in a volume of 0.1 m/10 g body weight. […] Seizures were assessed similar to the methods previously described (Roberts & Keith, J Pharmacol Exp Ther, 270:505-11, 1994; Urbanska et al., Eur J Pharmacol, 359:55-8, 1998).
Behavioral observations were performed within 120 min following application of 3-NP. Three major categories of convulsive seizure response were been considered and recorded: • 1. Clonic movements: the movements of the forelimbs accompanied by facial twitching; • 2. Explosive clonic movements: the movement of all four limbs involving running, jumping and bouncing; • 3. Tonic response: including tonic flexion and tonic extension of the all four limbs.
Mortality rate was evaluated at 120 min after 3NP injection.

[6] = molecular target: cytochrome oxidase (Complex IV) (Homo sapiens, UniProt P00395); conditions: Brown G C, Mol. Cell. Biochem. 174:189-192, 1997; cited from earlier work
[7] = system: Normal human neural progenitor (NHNP) cells; test: Survival of differentiated NHNP cells without glucose and with azide (LDH/MTT); assay type: cell-based; conditions: no glucose, sodium azide 0, 2, 4 and 8 mM, 20 hours (FIG. 16)
Procedure: NHNP cells derived from fetal brain were obtained from Clonetics (Walkersville, Md.; cat# CC-2598). The NHNP cells can be differentiated into neurons, glial cells, endothelial cells or microglial cells. […] Rockville, Md.) and hLIF (R&D System, Cat. 250-L-050. […] NHNP cells, passage 3-14 were plate in 96 well plates at 10 k cells/well and differentiated for 10 days. On the day of the experiment, cells were washed with DMEM without glucose, then incubated 20 hours in 100 μl of DMEM, no glucose and dialyzed 1% FBS (Life Technology Cat. 26300-061). […] Cell survival was assessed by the ratio of extracellular lactate dehydrogenase (LDH)/intracellular total dehydrogenase activity (MTT assay). Each condition was assayed in triplicate or quadruplicate. […] Extracellular LDH was assayed with 50 μl of supernatant using the Cytotoxicity Assay Kit (CytoTox 96 Non-Radioactive Cytotoxicity Assay; Promega, Cat. G1780. Madison, Wis.) according to kit instructions and read OD at 490 nm. After removing medium from the NHNP cells, 100 μl of assay medium (DMEM, no glucose and dialyzed 1% FBS) was added back to the cells. MTT was assayed in cells according to the kit instructions using Cell Proliferation Assay Kit (Promega, Cat. G4100. Madison, Wis.). Dye solution (15 μl) was added to each well and incubated 4 hours at 37° C. […] OD was read at 570 nm.

MPTP treated mice [8] = test: MPTP model of Parkinson's disease, second study; assay type: in vivo, C57/BL6 mice; conditions: MPTP b.i.d. for 2 days, sacrificed on day 9, mean ± SEM
Procedure: A second study using MPTP (25 mg/kg i.p. b.i.d. for 2 days) was performed. […] TAU or vehicle was given orally (dose of TAU=4 g/kg bw b.i.d.) starting the day before MPTP administration and ending on day 8. Mice were sacrificed on day 9.

MPTP treated mice [9] = test: MPTP model of Parkinson's disease, first study
[10] = system: mice given intrastriatal QA; test: Quinolinic acid (QA) model of excitotoxicity; assay type: in vivo, Swiss mice; conditions: TAU 4 g/kg bw p.o. b.i.d.
taxol-treated mice = test: Taxol-induced neuropathy, tail-flick latency; assay type: in vivo; conditions: nine days after initiation of taxol 21.6 mg/kg/day i.p. for 6 days; oral triacetyluridine 4000 mg/kg b.i.d.
Procedure: Two groups of 10 mice each were treated with taxol, 21.6 mg/kg/day for 6 consecutive days by intraperitoneal injection. An additional group of 10 mice received injections of vehicle alone. One of the groups of taxol-treated mice received oral triacetyluridine, 4000 mg/kg b.i.d. Nine days after the initiation of taxol treatments, nociceptive sensory deficits were tested by determining tail-flick latency after exposure of the tip of the tail to focused thermal radiation with an infrared heat lamp. In this system, delays in the tail-flick response to radiant heat correlate with sensory nerve deficits.

[11] = 160 mg/kg 3NP i.p., TAU 4 g/kg p.o. 2 hours prior, within 120 min

Compound: CN(CC(=O)O)C(=N)N [creatine]
- mortality due to 3NP treatment (3NP treated mice [1]): not
- decrease in activity due 3NP treatment (3NP treated mice [2]; experiment 1 (FIG. 7)): not attenuated
- impairment of rotarod performance at 5 RPM due to 3NP (3NP treated mice [3]; experiment 1 (FIG. 10)): significantly (p<0.01)

Compound: O=C(O)CC[N+](=O)[O-] [3NP, 3-nitropropionic acid]
- mortality due to 3NP (3NP treated mice [4]; 3NP 65 mg/kg i.p. daily for 4 days, TAU 4 g/kg bw p.o. b.i.d., n=8/group): 3 of 8
- mice with behavioral (motor) impairment by gross observation (3NP treated mice [4]; at anytime during the study): 88%
- mice with silver impregnation of axons and/or synaptic terminals in thalamus, deep mesencephalon and/or reticular formation (3NP treated mice [4]; day 9): 80%
- neuronal damage by silver staining (striatal area, substantia nigra) (3NP treated mice [4]; day 9, blinded pathologist): pronounced
- Latency to clonic seizure (3NP treated mice [5]; 160 mg/kg 3NP i.p., TAU 4 g/kg p.o. 2 hours prior, mean ± SEM): 23.8 ± 0.7 min
- % Clonic seizures (3NP treated mice [5]; [11]): 90.0%
- % Running seizures (3NP treated mice [5]; [11]): 42.9%
- % Mortality (3NP treated mice [5]; at 120 min after 3NP injection): 35%

Compound: COC1=C(OC)C(=O)C(C/C=C(\C)CC/C=C(\C)CC/C=C(\C)CC/C=C(\C)CC/C=C(\C)CC/C=C(\C)CC/C=C(\C)CC/C=C(\C)CC/C=C(\C)CCC=C(C)C)=C(C)C1=O [coenzyme Q10]
- loss in body weight due to 3NP (3NP treated mice [1]; experiment 2 (FIG. 5)): attenuated
- mortality due to 3NP treatment (3NP treated mice [1]): decreased mortality
- decrease in activity due 3NP treatment (3NP treated mice [2]; experiment 2 (FIG. 8)): attenuated
- impairment in rotarod performance at 10 RPM due 3NP treatment (3NP treated mice [3]; experiment 2 (FIG. 11)): attenuated

Compound: [N]=O [Nitric oxide]
- concentration that inhibits cytochrome oxidase / mitochondrial respiration [6]: ~1 µM

Compound: O=c1ccn([C@@H]2O[C@H](CO)[C@@H](O)[C@H]2O)c(=O)[nH]1 [Uridine, uridine]
- uridine concentration required for robust protection of cells [7]: ≥ 50 µM

Compound: CN1CC=C(c2ccccc2)CC1 [MPTP, 1-methyl-4-phenyl-1,2,3,6-tetrahydropyridine]
- Striatal DA, MPTP-treated mice (MPTP treated mice [8]): 15.9 ± 2.2 ng DA/mg protein
- mortality (MPTP treated mice [9]; MPTP 30 mg/kg i.p. b.i.d. for 1.5 days, TAU 4 g/kg p.o. b.i.d.): 71.4%
- Striatal DA, MPTP-treated mice (MPTP treated mice [9]; first study, eight days after stopping MPTP, mean ± SEM): 9.2 ± 2.2 ng DA/mg protein

Compound: O=C(O)c1cccnc1C(=O)O [QA, Quinolinic acid]
- percent of mice surviving the 7 days ([10]; 50 nmoles QA bilaterally in striatum): 64%
- percent of mice surviving the 7 days ([10]; 100 nmoles QA bilaterally in striatum): 4%

Compound: CC(=O)O[C@H]1C(=O)[C@@]2(C)[C@H]([C@H](OC(=O)c3ccccc3)[C@]3(O)C[C@H](OC(=O)[C@H](O)[C@@H](NC(=O)c4ccccc4)c4ccccc4)C(C)=C1C3(C)C)[C@]1(OC(C)=O)CO[C@@H]1C[C@@H]2O [Taxol, taxol]
- Tail flick latency (taxol-treated mice): 16.0 ± 3.1 s
